Source: PubChem BioAssay AID588512 (NMMLSC, 2011)
Active and inactive are the calls of the source.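 How the source made its calls: active means viability below 80%, counted as toxic; inactive means the rest.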

System: HEK-293 viability, CellTiter-Glo ATP luminescence, 3 days
Experiment: HEK-293 cell cytotoxicity, late-stage follow-up, cytotoxicity control for GRK2 aptamer-displacement inhibitor project, powder set 1 (AID 588512)
Conditions: at 20 µM; active compounds read low

Row | SMILES | viability
1 | Cc1cc2ccccc2n1CCNC(=O)c1cccs1 | 109% (inactive)
2 | O=C(O)C1CC(=O)N(c2ccc3c(c2)OCCO3)C1 (stereo not given) | 133% (inactive)
3 | O=C(CCS(=O)(=O)c1ccc(Br)cc1)NCCc1ccc(Cl)cc1 | 124% (inactive)
4 | Cc1cccc(N2CCN(C(=O)CCS(=O)(=O)c3ccc(Br)cc3)CC2C)c1 (stereo not given) | 113% (inactive)
5 | CCOc1ccc(CCNC(=O)CCS(=O)(=O)c2ccc(Br)cc2)cc1OCC | 123% (inactive)
6 | O=C(CCS(=O)(=O)c1ccc(Br)cc1)Nc1cc(F)ccc1F | 110% (inactive)
7 | COc1ccc(CNC(=O)CCS(=O)(=O)c2ccc(Br)cc2)cc1 | 95.2% (inactive)
8 | Cc1ccccc1NC(=O)CCS(=O)(=O)c1ccc(Br)cc1 | 128% (inactive)
9 | Cc1cc(=O)[nH]c(SCC(=O)NCc2ccco2)n1 | 69.3%
10 | CCc1ccccc1NC(=O)CCS(=O)(=O)c1ccc(Br)cc1 | 82.6% (inactive)
